Laboratory results from a compilation of properties of binary mixtures (doi:10.1021/acs.jpcb.6b06974).

Assay: xn = mol fraction of the nth substance listed
Settings: 101 kPa

CCCCCC[n+]1ccn(C)c1.O=S(=O)([N-]S(=O)(=O)C(F)(F)F)C(F)(F)F + ClC(Cl)Cl
Settings	electrical conductivity [S/m]
288.5 K, x1 = 0.018	0.021
288.5 K, x1 = 0.137	0.302
288.5 K, x1 = 0.297	0.46
288.5 K, x1 = 0.604	0.255
288.5 K, x1 = 0.713	0.211
288.5 K, x1 = 0.848	0.169
288.5 K, x1 = 0.911	0.153
288.5 K, x2 = 0.014	0.137
298.2 K, x1 = 0.034	0.076
298.2 K, x1 = 0.167	0.477
298.2 K, x1 = 0.256	0.582
298.2 K, x1 = 0.379	0.524
298.2 K, x1 = 0.562	0.369
298.2 K, x1 = 0.732	0.295
298.2 K, x1 = 0.87	0.245
298.2 K, x1 = 0.924	0.233
298.2 K, x1 = 0.962	0.221
298.2 K, x2 = 0.008	0.213
308.2 K, x1 = 0.019	0.04
308.2 K, x1 = 0.123	0.501
308.2 K, x1 = 0.214	0.686
308.2 K, x1 = 0.318	0.701
308.2 K, x1 = 0.4	0.652
308.2 K, x1 = 0.585	0.431
308.2 K, x1 = 0.807	0.378
308.2 K, x1 = 0.905	0.327
308.2 K, x1 = 0.949	0.336
308.2 K, x2 = 0.015	0.326
318.5 K, x1 = 0.03	0.072
318.5 K, x1 = 0.2	0.785
318.5 K, x1 = 0.247	0.835
318.5 K, x1 = 0.446	0.788
318.5 K, x1 = 0.684	0.55
318.5 K, x1 = 0.815	0.529
318.5 K, x1 = 0.92	0.479
